In US8017581B1, “MSH-agonist tripeptide conjugates” (Centre National de la Recherche Scientifique (CNRS), priority 2004, dated 2011):
Non-standard residues stand in square brackets, D forms with d. Residues, ends and D or L forms follow the SMILES beside them. *: point of attachment. Palmitoyl = CCCCCCCCCCCCCCCC(=O)*; Nle = CCCC[C@H](N)C(=O)O

Assays:
MC1 receptor [1] = target: T1, MC1 receptor (Mus musculus, UniProt Q01727); assay: cAMP induction on Cloudman S91 mouse melanoma cell line (preliminary screening); format: cell-based; conditions: tripeptide at 50 nM, percentage of the maximum response with control peptide (1) at 50 nM
T1 construct: The Cloudman S91 mouse melanoma cell line (Yasumara et al. Science. 154, pages 1186-1189) was used for the preliminary screening; endogenous in cells; host or cells: Cloudman S91 mouse melanoma cells
T1 sequence (Q01727 whole entry): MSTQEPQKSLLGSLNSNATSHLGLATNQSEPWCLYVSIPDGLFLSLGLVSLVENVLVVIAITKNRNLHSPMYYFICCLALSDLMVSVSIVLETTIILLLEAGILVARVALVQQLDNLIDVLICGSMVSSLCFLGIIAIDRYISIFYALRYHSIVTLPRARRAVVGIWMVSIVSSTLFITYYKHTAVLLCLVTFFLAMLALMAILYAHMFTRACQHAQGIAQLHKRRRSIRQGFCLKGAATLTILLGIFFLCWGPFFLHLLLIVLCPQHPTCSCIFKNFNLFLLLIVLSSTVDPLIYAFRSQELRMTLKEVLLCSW
Procedure: The Cloudman S91 mouse melanoma cell line (Yasumara et al. Science. 154, pages 1186-1189) was used for the preliminary screening. The cells were maintained in HAM F10 with 10% of horse serum, 2% of fetal calf serum (FCS), 1 mM of glutamine, 100 U/ml of penicillin and 10^−4 g/ml of streptomycin (Eurobio, Les Ulis, France). All the cell lines were maintained at 37° C. in a 5% CO2 atmosphere, and the cell culture media were renewed every two days. The cells were plated out onto a 96-well plate (Nunc, Roskilde, Denmark) 24 hours before contact with the peptides.
(§1) Briefly, the cells plated out the day before were incubated for 1 hour with 10^−4 M of adenine (Sigma) and then for 10 minutes in Krebs Ringer Hepes medium with 10^−4 M of isobutyl-1-methylxanthine (Sigma), 10^−4 M of 4-[(3-butoxy-4-methoxyphenyl)methyl]-2-imidazolidinone (Calbiochem) and tripeptides according to the invention, at 10^−7 M.
(§2) After this period of time, cell lysis was carried out according to the manufacturer's protocol.
The cAMP content was measured using a competition binding assay kit (RPN225, Amersham Pharmacia Biotech) according to the manufacturer's instructions. […]
Thus, 1 tripeptide according to the invention was tested, at a concentration of 50 nM, on the induction of cAMP, which was calculated with respect to the response of cAMP production induced by α-MSH (50 nM).

MC1 receptor [2] = target: T2, MC1 receptor (Homo sapiens, UniProt Q01726); assay: cAMP production in M4Be human melanocyte cells (EC50 determination); format: cell-based; conditions: mean of at least two sets of independent experiments
T2 construct: endogenous in cells; host or cells: M4Be human melanocyte cell line
T2 sequence (Q01726 whole entry): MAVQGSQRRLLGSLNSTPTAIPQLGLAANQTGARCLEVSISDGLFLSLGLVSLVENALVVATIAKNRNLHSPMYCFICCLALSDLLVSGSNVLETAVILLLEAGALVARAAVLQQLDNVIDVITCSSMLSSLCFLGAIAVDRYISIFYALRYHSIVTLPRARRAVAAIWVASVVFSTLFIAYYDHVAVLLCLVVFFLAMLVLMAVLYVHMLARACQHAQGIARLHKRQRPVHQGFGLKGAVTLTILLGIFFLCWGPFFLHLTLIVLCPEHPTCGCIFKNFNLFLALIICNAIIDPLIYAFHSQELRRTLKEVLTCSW
Procedure: The M4Be human cell line (Jacubovich et al. Cancer Immunol. Immunother. 1979, 7, 59-64), a melanocyte cell line capable of producing melanins, was used in this study to determine the EC50 values.
The cells were maintained in Dulbecco's modified Eagle medium, with 10% of FCS, 1 mM of glutamine, 100 U/ml of penicillin and 10^−4 g/ml of streptomycin. All the cell lines were maintained at 37° C. in a 5% CO2 atmosphere, and the cell culture media were renewed every two days. The cells were plated onto a 96-well plate (Nunc, Roskilde, Denmark) 24 hours before contact with the peptides.
as §1, §2
The cAMP content was measured using a competition binding assay kit (RPN225, Amersham Pharmacia Biotech) according to the manufacturer's instructions. Each independent experiment was carried out at least twice in triplicate.
Determination of the EC50:
The curves were adjusted and the EC50 values were determined with nonlinear regression in the GraphPad Prism (GraphPad software). Each EC50 value was the mean of at least two sets of independent experiments.

Row | % cAMP induction (MC1 receptor [1]) | EC50 (MC1 receptor [2]) | Structure (SMILES)
1 | 147% | 2.3 nM | CCCCCCCCCCCCCCCC(=O)N[C@@H](Cc1c[nH]cn1)C(=O)N[C@H](Cc1ccccc1)C(=O)N[C@@H](CCCNC(=N)N)C(N)=O [tripeptide 1, Palm-His-DPhe-Arg-NH2] (Palmitoyl-His-[dF]-Arg-NH2)
2 | – | 17.3 nM | CCCCCCCCCCCCCCCC(=O)N[C@@H](Cc1c[nH]cn1)C(=O)N[C@H](Cc1ccccc1)C(=O)N[C@@H](Cc1c[nH]c2ccccc12)C(N)=O [tripeptide 2, Palm-His-DPhe-Trp-NH2] (Palmitoyl-His-[dF]-Trp-NH2)
3 | – | 4 nM | CCCC[C@H](NC(C)=O)C(=O)N[C@@H](C)C(=O)N[C@@H](Cc1c[nH]cn1)C(=O)N[C@H](Cc1ccccc1)C(=O)N[C@@H](CCCNC(=N)N)C(=O)N[C@@H](Cc1c[nH]c2ccccc12)C(N)=O [control peptide, Ac-Nle-Ala-His-(D)Phe-Arg-Trp-NH2, reference compound] (Ac-[Nle]AH[dF]RW-NH2)
